# Entries after “also recorded” stand apart in the source; their conditions may differ.
# Tested on: Human bone marrow derived mesenchymal stem cells (MSCs)
# Assay: Osteogenic differentiation of MSCs (Alizarin Red calcium deposition)
# Conditions: for osteogenic activity (structure-activity summary, in words): donor MSCs; for osteogenic activity (structure-activity summary, in words) / osteogenesis averaged over all three donors, relative to vehicle treated MSCs / cytotoxicity to donor MSCs: 1 μM; for induction category of osteogenic differentiation (no, low, high induction): screen, MSCs from one donor (Donor 1), analogs and daidzein 1 μM, estrogen 10 nM; for cytotoxicity to donor MSCs: MSCs from three donors (toxic in Donor 2 and Donor 3)
Compound,"osteogenic activity (structure-activity summary, in words) (14 days)","induction category of osteogenic differentiation (no, low, high induction) (14 days)",also measured
"COc1ccc(C(=O)Nc2ccc(OCC(C)C)cc2)c(OC)c1 [12b, N-(4-Isobutoxyphenyl)-2,4-dimethoxybenzamide]",not active at all,,
"CC1(C)CCc2c(ccc3c2OCC(c2ccc(O)cc2)C3)O1 (stereo not drawn) [compound 5, 4-(8,8-Dimethyl-2,3,4,8,9,10-hexahydropyrano[2,3-f]chromen-3-yl)phenol]",no discernible osteogenic activity,,
"CC1(C)C=Cc2cc3c(cc2O1)OCC(c1ccc(O)cc1)C3 (stereo not drawn) [compound 10, 4-(8,8-Dimethyl-2,3,4,8-tetrahydropyrano[3,2-g]chromen-3-yl)phenol]",,,"osteogenesis averaged over all three donors, relative to vehicle treated MSCs (14 days): 2.2±0.19"
"COc1ccc(C(=O)Nc2ccc(O)cc2)c(OC)c1 [compound 11, N-(4-Hydroxyphenyl)-2,4-dimethoxybenzamide]",not active at all,,
"CCCCOc1ccc2c(=O)c(-c3ccc(O)cc3)coc2c1 [2e, 7-Butoxy-3-(4-hydroxyphenyl)-4H-chromen-4-one]",marked enhancement; also recorded: over two-fold increase,high inducers,"osteogenesis averaged over all three donors, relative to vehicle treated MSCs (14 days): 2.3±0.33"
"O=c1c(-c2ccc(O)cc2)coc2cc(OCCN3CCCCC3)ccc12 [2i, 3-(4-Hydroxyphenyl)-7-(2-(piperidin-1-yl)ethoxy)-4H-chromen-4-one]",,high inducers,cytotoxicity to donor MSCs (14 days): cytotoxic; also recorded: potent toxicity to two donors
"CCCOc1ccc2c(=O)c(-c3ccc(O)cc3)coc2c1 [2d, 3-(4-Hydroxyphenyl)-7-propoxy-4H-chromen-4-one]",modest osteogenesis,,cytotoxicity to donor MSCs (14 days): cytotoxic; also recorded: toxicity to two donor cells
"COc1ccc(NC(=O)c2ccc(OC)cc2OC)cc1 [12a, 2,4-Dimethoxy-N-(4-methoxyphenyl)benzamide]",strong osteogenic activity,high inducers,
"CCCCCCOc1ccc2c(=O)c(-c3ccc(O)cc3)coc2c1 [2h, 7-Hexyloxy-3-(4-hydroxyphenyl)-4H-chromen-4-one]",marked enhancement,high inducers,"osteogenesis averaged over all three donors, relative to vehicle treated MSCs (14 days): 2.0±0.48"
"CCCCOc1ccc2c(c1)OCC(c1ccc(O)cc1)C2 (stereo not drawn) [compound 9, 4-(7-Butoxychroman-3-yl)phenol]",no osteogenic activity,,
"COc1ccc2c(=O)c(-c3ccc(O)cc3)coc2c1 [2a, 3-(4-Hydroxyphenyl)-7-methoxy-4H-chromen-4-one]",modest osteogenic activity,,
"Cc1cc2c(ccc3c(=O)c(-c4ccc(O)cc4)coc32)o1 [compound 7, 3-(4-hydroxyphenyl)-8-methyl-4H-furo[2,3-h]chromen-4-one]",modest potential,,
"CN(C)CCOc1ccc2c(=O)c(-c3ccc(O)cc3)coc2c1 [2k, 7-(2-(Dimethylamino)ethoxy)-3-(4-hydroxyphenyl)-4H-chromen-4-one]",no osteogenic effect,,
"CC(C)COc1ccc2c(=O)c(-c3ccc(O)cc3)coc2c1 [2f, 3-(4-Hydroxyphenyl)-7-isobutoxy-4H-chromen-4-one]",marked enhancement,high inducers,"differentiation at day 7 (day 7): enhanced differentiation at day 7; IC50 (analog concentration required to achieve 1.5 fold relative bone differentiation) (donor 3, 1 nM-1 μM, 14 days): 1.38 μM; IC50 (read-out: IC50 averaged among the three donors, mean of three donors, 14 days): 504 nM; osteogenesis averaged over all three donors, relative to vehicle treated MSCs (14 days): 1.8±0.48"
"CCOc1ccc2c(=O)c(-c3ccc(O)cc3)coc2c1 [2b, 7-Ethoxy-3-(4-hydroxyphenyl)-4H-chromen-4-one]",modest osteogenic activity,,
